Experimental data published in PubChem BioAssay AID179 (DTP/NCI, 2004).
The source made the active and inactive calls.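 Rule for the calls: active = compounds giving half or more protection of infected cells from virus-caused growth loss, again on retest; inactive = the rest.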 Where a SMILES comes first, the peptide text is derived from it. The star is where a group is joined. CH2Cl = ClC*

Test system: CEM cells HIV-1 protection, formazan growth assay
Test: NCI AIDS Antiviral Assay
Conditions: for IC50: measured here: growth of uninfected CEM cells
Procedure, shortened: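 Soluble formazan readout of cell growth; CEM cells ± HIV-1; 5 drug concs. ≥50% protection → retest; ≥50% again = moderately active; reproducible 100% = confirmed active.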

Compound	outcome	EC50	IC50
O=C(CC(O)(C(F)(F)F)C(F)(F)F)C(c1ccccc1)C(O)(C(F)(F)F)C(F)(F)F (configuration not stated)	inactive	–	–
Cc1cc(C)c2c(c1)CC(C)(C)C(=O)OC2=O	–	> 112 µM	> 112 µM
O=C(O)c1nn(-c2ccccc2)nc1-c1nn(-c2ccccc2)nc1C(=O)O	–	> 200 µM	> 200 µM
COC(=O)CC1NC(=O)C1C1(C)OCCO1 (configuration not stated)	–	> 251 µM	> 251 µM
COC(=O)C1C(C(=O)OC)C2(OC(c3ccc(Cl)cc3)=CC2=O)C12OC(c1ccc(Cl)cc1)=CC2=O (configuration not stated)	–	> 200 µM	4.27 µM
NC1CC(=O)c2cc(Br)sc21 (configuration not stated)	–	> 200 µM	> 200 µM
CC(C)(Oc1ccc(Cl)cc1)C(=O)N(C(=O)N1CCCCC1)c1ccccc1	–	> 200 µM	13.2 µM
O=S(=O)(O)c1ccc2c(N=Nc3ccc(S(=O)(=O)O)c4ccccc34)c(O)c(S(=O)(=O)O)cc2c1	inactive	> 100 µM	> 100 µM
OCc1ccc2[n+](c1)CCC1c3ccccc3NC21 (configuration not stated)	–	> 77.6 µM	> 77.6 µM
CON(C)C(=O)C1CCCO1 (configuration not stated)	–	> 200 µM	> 200 µM
Cc1ccc(-c2c3nc(c(-c4ccc(C)cc4)c4ccc([nH]4)c(-c4ccc(C)cc4)c4nc(c(-c5ccncc5)c5ccc2[nH]5)C=C4)C=C3)cc1.Cc1ccc(-c2c3nc(c(-c4ccc(C)cc4)c4ccc([nH]4)c(-c4ccc(C)cc4)c4nc(c(-c5ccncc5)c5ccc2[nH]5)C=C4)C=C3)cc1.O=S(=O)([O-])C(F)(F)F.[Pt+2].c1ccc([PH+](CCC[PH+](c2ccccc2)c2ccccc2)c2ccccc2)cc1	inactive	–	–
COc1ccc(C[C@H]2C(=O)OC[C@@H]2Cc2ccc(OC)c(OC)c2)cc1O	–	> 200 µM	70.8 µM
[O-]/C(=C\[P+](c1ccccc1)(c1ccccc1)c1ccccc1)c1ccccc1	–	> 200 µM	32.4 µM
O=C(O)c1cc(C(c2ccc(O)c(C(=O)O)c2)c2ccc(O)c(C(=O)O)c2)ccc1O	–	> 151 µM	28.8 µM
CC(=O)C1(O)Cc2c(O)c3c(c(O)c2C(OC2CC(N)C(O)C(C)O2)C1)C(=O)c1ccccc1C3=O (configuration not stated)	–	> 339 µM	0.107 µM
NC(=O)C1CCCN1C(=O)C(Cc1cnc[nH]1)NC(=O)C1CCCC1 (configuration not stated)	–	> 200 µM	> 200 µM
N#Cc1c(N=Cc2ccccc2)c(C(=O)Nc2ccccc2)n2c1CCCC2	–	> 200 µM	> 200 µM
CCN1C(=O)c2cc(=O)[nH]c(O)c2C1C (configuration not stated)	–	> 468 µM	> 468 µM
O=C1CC(c2ccccc2)S(=O)(=O)c2ccccc2N1 (configuration not stated)	–	> 200 µM	> 200 µM

Compound	outcome	EC50	IC50
COC(=O)[C@H](CCCN=C(N)N)NC(=O)CCCCCCCCCCNC(=O)c1cc(CNC2=NCCN2)cc(CNC2=NCCN2)c1	–	> 100 µM	> 100 µM
C=C(C(=O)OC)c1cc2ccccc2n1S(=O)(=O)c1ccccc1	–	> 20 µM	3.02 µM
CC(=O)NC(CC(C)C)C(=O)NC(Cc1ccccc1)C(=O)CCl (stereo not drawn) (Ac-Leu-Phe-CH2Cl; configuration not given here)	–	> 200 µM	1.12 µM
O=C(/C=C/c1ccc(O)c([N+](=O)[O-])c1)CC(=O)/C=C/c1ccc(O)c([N+](=O)[O-])c1	–	> 200 µM	25.7 µM
CN(C)COC(=S)SC(=O)OCCCl	–	> 200 µM	> 200 µM
CCC(C)C(NC(=O)C(CCCCN)NC(=O)CNC(=O)C(NC(=O)C(NC(=O)C(NC(=O)C(Cc1ccccc1)NC(=O)C(C)NC(=O)C(CCCNC(=N)N)NC(=O)CNC(=O)C1CCCN1C(=O)CNC(=O)C(CCCNC(=N)N)NC(=O)C(CCC(N)=O)NC(=O)C(NC(=O)C(CCCNC(=N)N)NC(=O)C(NC(=O)C(CO)NC(=O)C(CCCCN)NC(=O)C(CCCNC(=N)N)NC(=O)C(NC(=O)C(CC(N)=O)NC(=O)C(N)CC(=O)NC1OC(CO)C(O)C(O)C1NC(C)=O)C(C)O)C(C)CC)C(C)CC)C(C)C)C(C)O)C(C)CC)C(=O)NCC(N)=O (configuration not stated)	–	> 50.1 µM	> 50.1 µM
COC(=O)[C@H](CCSC)NC(=O)N[C@H](C)c1ccccc1	–	> 200 µM	> 200 µM
COC(=O)C1C2C1C1C=CC2n2c(=O)n(-c3ccccc3)c(=O)n21 (configuration not stated)	–	> 200 µM	> 200 µM
CCOC(=O)C(CN1CCN(CC(NC=O)(C(=O)OCC)C(=O)OCC)CC1)(NC=O)C(=O)OCC	–	> 200 µM	35.5 µM
Cc1nn(C(=O)c2ccc(Cl)cc2)c2c1C(c1ccccc1[N+](=O)[O-])SC(N)=N2 (configuration not stated)	–	> 200 µM	105 µM
COC(=O)N1CCC(Sc2ccccc2)C2(CCSc3ccccc3)CCC=C12 (configuration not stated)	–	> 12.3 µM	> 12.3 µM
N/C(=N\N=C\C1CC2C=CC1C2)NO (configuration not stated)	inactive	–	–
C/C(=N/NC(=S)N(C)CCc1ccccn1)c1cnccn1	–	> 0.2 µM	0.0178 µM
O=Cc1cn(CCCCCCCCCCCCn2cc(C=O)c3ccccc32)c2ccccc12	–	> 200 µM	1.2 µM
CCOC(=O)NC(Nc1ccc(Cl)cn1)(C(F)(F)F)C(F)(F)F	–	> 200 µM	> 200 µM
CN(CCc1ccccn1)/[N+]([O-])=N/O (tested in a mixture with another compound)	–	> 4680 µM	3470 µM
CCOC(=O)/C(=C\c1ccc([N+](=O)[O-])cc1)P(=O)(OCC)OCC	–	> 20.4 µM	10.2 µM
CCCCCCCCCCCC(=O)OC[C@H](C[As](=O)(O)O)OC(=O)CCCCCCCCCCC	–	> 200 µM	4.17 µM
